Results from US20220249599A1, “TREATMENT OF IMPLANTS WITH ENGINEERED ANTIMICROBIAL AMPHIPHILIC PEPTIDES” (priority 2018, published 2022).
“And” between values parts separate entries of the source, which are not always exact repeats. Identical values can stand only once. Like-named read-outs stand apart in the source and are kept apart here. Marks after values point to notes of the source that are not given here. Ends that are not written are not given here.

How the values were obtained:
[1] = monkey
Experimental: Animals will be obtained from the Test Facility's colony of adult male cynomolgous monkeys (Macaca fascicularis) of Chinese origin. Animals will be weighed prior to dosing.
Intravenous administration will be via 30 minute infusion into a temporary percutaneous catheter placed into a saphenous vein. Prior to and following dose administration, the catheter will be flushed with 0.5 mL saline prior to removal. All dosing syringes will be weighed prior to and following dosing.
Serial blood samples will be collected via femoral vein (cephalic or saphenous, as necessary). Approximately 1 mL blood samples will be collected into K2EDTA tubes.
Blood samples will be collected into K2EDTA tubes and stored on wet ice. Whole blood will be processed to plasma by centrifugation (2400-2700 rpm at 5° C.) within 30 minutes of collection. Plasma samples will be split into 2 equal aliquots and stored at −80° C. until analysis.
Prior to extraction, a known concentration of a mass-adjusted internal standard (IS) will be added to assess recovery and allow for quantitation. Purified samples will be further subjected to high-performance liquid chromatography (HPLC) using C18 300 or 130 angstrom columns prior to MS/MS analysis. Multiple charge states will be observed by MS, so MS/MS will be employed to enable multiple reaction monitoring (MRM) analyses to determine the most MRM transitions with the highest signal-to-noise gain. Compound plasma concentrations will be determined by comparing to and compensating with co-purified IS peak intensity and validated calibrated standard curves.
Toxicokinetic parameters will be calculated using non-compartmental methods as implemented in the Phoenix® WinNonlin® ver. 6.3 comprehensive TK/PK analysis software program (Pharsight Corporation; Mountain View, Calif.) using an IV infusion model. Toxicokinetic analysis will be conducted using a 30-minute intravenous infusion time. Therefore, 30 minutes will be added to each sample time point postdose to obtain nominal time for TK analysis. Nominal times and dosage levels will be used for all calculations. Values below the lower limit of quantitation (BLQ) will be assigned a value of zero for the toxicokinetic calculations. Microsoft® Excel® 2013 will be used for receipt of bioanalytical data, minor formatting, including setting BLQ values to “0”, transfer into WinNonlin® for TK analysis, and calculation of the mean when an approximated value will be excluded. All plasma concentration data from all animals will be included in the analysis.

[2] = tested on: Pseudomonas aeruginosa ATCC BAA-2109 (MDR); assay type: cell-based; details: ATCC BAA-2109
Experimental: (§1) Each peptide was formulated in PBS buffer prior to testing. Peptides of SEQ ID NO:5 and SEQ ID NO:8 were brought up in 100% DMSO with 0.002% polysorbate-80 at 1.28 mg/mL (40× the highest final test concentration of 32 mcg/mL). Final test concentration of DMSO was 2.5% in the assay at the first dilution for those two compounds.
(§2) Mueller Hinton II broth (MHB II; BD; Lot Nos. 6258541 and 7143896) was used for MIC testing of aerobic organisms. 0.002% polysorbate 80 (P80) was added to the test medium.
(§3) MIC values were determined using a broth microdilution procedure described by CLSI (1, 3). Automated liquid handlers (Multidrop 384, Labsystems, Helsinki, Finland; Biomek 2000 and Biomek FX, Beckman Coulter, Fullerton Calif.) were used to conduct serial dilutions and liquid transfers.
(§4) To prepare the drug mother plates, which would provide the serial peptide dilutions for the replicate daughter plates, the wells of columns 2-12 of standard 96-well microdilution plates (Costar 3795) were filled with 150 µl of the designated diluent for each row of peptide.
(§5) The test articles and comparator compounds ([…] at 40× the highest concentration to be tested) were dispensed into the appropriate wells in column 1. The Biomek 2000 was then used to make 2-fold serial dilutions in the mother plates from column 1 through column 11. The wells of Column 12 contained no drug and served as the organism growth control wells for the assay.
(§6) The daughter plates were loaded with 185 μL per well of MHB II using the Multidrop 384. The daughter plates were completed on the Biomek FX instrument which transferred 5 uL of peptide solution from each well of a mother plate to the corresponding well of each daughter plate in a single step. A standardized inoculum of each test organism was prepared per CLSI methods. The inoculum for each organism was dispensed into sterile reservoirs divided by length (Beckman Coulter), and the Biomek 2000 was used to inoculate the plates. Daughter plates were placed on the Biomek 2000 work surface in reverse orientation so that inoculation took place from low to high drug concentration.
(§7) Plates were stacked 3-4 high, covered with a lid on the top plate, placed in plastic bags, and incubated at 35° C. for 16 to 20 hrs. Following incubation, the microplates were removed from the incubator and viewed from the bottom using a plate viewer. […] The MIC was read and recorded as the lowest concentration of peptide that inhibited visible growth of the organism.

[3] = tested on: Staphylococcus aureus ATCC 29213 (MSSA; QC); assay type: cell-based; details: ATCC 29213
Experimental: as §1, §2, §3, §4, §5, §6, §7

[4] = tested on: Enterococcus faecalis ATCC 29212 (VSE; QC); assay type: cell-based; details: ATCC 29212
Experimental: as §1, §2, §3, §4, §5, §6, §7

[5] = tested on: Streptococcus pneumoniae ATCC 49619 (QC); assay type: cell-based; details: ATCC 49619
Experimental: as §1, §2, §3, §4, §5, §6, §7

[6] = tested on: Enterococcus faecalis ATCC 700802 (V583 VRE); assay type: cell-based; details: ATCC 700802
Experimental: as §1, §2, §3, §4, §5, §6, §7

[7] = tested on: Staphylococcus aureus NRS382 (USA100; HA-MRSA); assay type: cell-based; details: USA100
Experimental: as §1, §2, §3, §4, §5, §6, §7

[8] = tested on: Escherichia coli ATCC BAA-2471 (NDM-1); assay type: cell-based; details: ATCC BAA-2471
Experimental: as §1, §2, §3, §4, §5, §6, §7

[9] = tested on: Staphylococcus aureus ATCC 43300 (MRSA); assay type: cell-based; details: ATCC 43300
Experimental: as §1, §2, §3, §4, §5, §6, §7

[10] = tested on: Escherichia coli ATCC 35218 (ESBL); assay type: cell-based; details: ATCC 35218
Experimental: as §1, §2, §3, §4, §5, §6, §7

[11] = tested on: Enterococcus faecium ATCC 51559 (VRE); assay type: cell-based; details: ATCC 51559
Experimental: as §1, §2, §3, §4, §5, §6, §7

[12] = tested on: Pseudomonas aeruginosa ATCC 27853 (non-MDR; QC); assay type: cell-based; details: ATCC 27853
Experimental: as §1, §2, §3, §4, §5, §6, §7

[13] = tested on: Acinetobacter baumannii ATCC 19606 (non-MDR); assay type: cell-based; details: Acinetobacter baumannii ATCC 19606 (non-MDR)
Experimental: as §1, §2, §3, §4, §5, §6, §7

[14] = tested on: Escherichia coli ATCC 25922 (QC); assay type: cell-based; details: ATCC 25922
Experimental: as §1, §2, §3, §4, §5, §6, §7

[15] = tested on: Streptococcus agalactiae ATCC 13813; assay type: cell-based
Experimental: as §1, §2, §3, §4, §5, §6, §7

[16] = tested on: Klebsiella pneumoniae ATCC BAA-1705 (KPC); assay type: cell-based; details: ATCC BAA-1705
Experimental: as §1, §2, §3, §4, §5, §6, §7

[17] = IV infusion 1 mg/kg, individual animals
[18] = IV infusion 3 mg/kg, individual animals
[19] = IV infusion 10 mg/kg, individual animals
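Throughout, for AUC0-24hr: adult male cynomolgus monkeys given a 30-min IV infusion, plasma drug levels quantified by LC-MS/MS against internal standard, parameters from non-compartmental IV infusion model analysis.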
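Throughout, for AUCinf Extrapolated: adult male cynomolgus monkeys given a 30-min IV infusion, plasma drug levels quantified by LC-MS/MS against internal standard, parameters from non-compartmental IV infusion model analysis.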
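Throughout, for AUCinf: adult male cynomolgus monkeys given a 30-min IV infusion, plasma drug levels quantified by LC-MS/MS against internal standard, parameters from non-compartmental IV infusion model analysis.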
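Throughout, for AUClast: adult male cynomolgus monkeys given a 30-min IV infusion, plasma drug levels quantified by LC-MS/MS against internal standard, parameters from non-compartmental IV infusion model analysis.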

Substance: RRWVRRVRRVWRRVVRVVRRWVRR-NH2 (C-terminus assumed) [SEQ ID NO: 1]
- AUC0-24hr ([1]; IV infusion 1 mg/kg, Mean): 1090 ng·h/mL
- AUCinf ([1]; IV infusion 1 mg/kg, Mean): 1170 ng·h/mL
- AUCinf Extrapolated ([1]; IV infusion 1 mg/kg, Mean): 10.0%
- AUClast ([1]; IV infusion 1 mg/kg, Mean): 983 ng·h/mL
- Cmax ([1]; IV infusion 1 mg/kg, Mean): 1710 ng/mL
- Dose Normalized AUClast ([1]; IV infusion 1 mg/kg, Mean): 983
- Dose Normalized Cmax ([1]; IV infusion 1 mg/kg, Mean): 1710
- T1/2 ([1]; IV infusion 1 mg/kg, Mean): 2 h
- Vss ([1]; IV infusion 1 mg/kg, Mean): 1380 mL/kg
- AUC0-24hr [1, 17]: 821 ng·h/mL and 1820 ng·h/mL and 616 ng·h/mL
- AUCinf [1, 17]: 938* hr*ng/mL and 1730 hr*ng/mL and 610 hr*ng/mL
- AUClast [1, 17]: 740 ng·h/mL and 1610 ng·h/mL and 595 ng·h/mL
- CL [1, 17]: 1070* mL/hr/kg and 579 mL/hr/kg and 1640 mL/hr/kg
- Cmax [1, 17]: 1460 ng/mL and 2660 ng/mL and 997 ng/mL
- Dose Normalized AUClast [1, 17]: 740 and 1610 and 595
- Dose Normalized Cmax [1, 17]: 1460 and 2660 and 997
- Tmax [1, 17]: 2 min
- Vss [1, 17]: 1530* mL/kg and 1260 mL/kg and 1510 mL/kg
- AUC0-24hr ([1]; IV infusion 3 mg/kg, Mean): 7580 ng·h/mL
- AUCinf ([1]; IV infusion 3 mg/kg, Mean): 7710 ng·h/mL
- AUCinf Extrapolated ([1]; IV infusion 3 mg/kg, Mean): 1.5%
- AUClast ([1]; IV infusion 3 mg/kg, Mean): 7580 ng·h/mL
- Cmax ([1]; IV infusion 3 mg/kg, Mean): 10300 ng/mL
- Dose Normalized AUClast ([1]; IV infusion 3 mg/kg, Mean): 2530
- Dose Normalized Cmax ([1]; IV infusion 3 mg/kg, Mean): 3450
- T1/2 ([1]; IV infusion 3 mg/kg, Mean): 5.2 h
- Vss ([1]; IV infusion 3 mg/kg, Mean): 1290 mL/kg
- AUC0-24hr [1, 18]: 6650 ng·h/mL and 11000 ng·h/mL and 5120 ng·h/mL
- AUCinf [1, 18]: 6730 ng·h/mL and 11200 ng·h/mL and 5180 ng·h/mL
- AUCinf Extrapolated [1, 18]: 1.2% and 2.3% and 1.1%
- AUClast [1, 18]: 6650 ng·h/mL and 11000 ng·h/mL and 5120 ng·h/mL
- CL [1, 18]: 446 mL/h/kg and 267 mL/h/kg and 580 mL/h/kg
- Cmax [1, 18]: 6830 ng/mL and 15500 ng/mL and 8690 ng/mL
- Dose Normalized AUClast [1, 18]: 2220 and 3660 and 1710
- Dose Normalized Cmax [1, 18]: 2280 and 5170 and 2900
- T1/2 [1, 18]: 4.4 h and 6.3 h and 5 h
- Tmax [1, 18]: 2 min and 1.5 min
- Vss [1, 18]: 1580 mL/kg and 905 mL/kg and 1370 mL/kg
- AUC0-24hr ([1]; IV infusion 10 mg/kg, Mean): 50300 ng·h/mL
- AUCinf ([1]; IV infusion 10 mg/kg, Mean): 50800 ng·h/mL
- AUCinf Extrapolated ([1]; IV infusion 10 mg/kg, Mean): 1.3%
- AUClast ([1]; IV infusion 10 mg/kg, Mean): 50300 ng·h/mL
- Cmax ([1]; IV infusion 10 mg/kg, Mean): 38200 ng/mL
- Dose Normalized AUClast ([1]; IV infusion 10 mg/kg, Mean): 5030
- Dose Normalized Cmax ([1]; IV infusion 10 mg/kg, Mean): 3820
- T1/2 ([1]; IV infusion 10 mg/kg, Mean): 4.6 h
- Vss ([1]; IV infusion 10 mg/kg, Mean): 1260 mL/kg
- AUCinf Extrapolated [1, 19]: 1.0% and 1.8% and 0.99%
- Cmax [1, 19]: 26000 ng/mL and 24300 ng/mL and 64300 ng/mL
- Dose Normalized Cmax [1, 19]: 2600 and 2430 and 6430
- T1/2 [1, 19]: 4.3 h and 4.9 h and 4.6 h
- Tmax [1, 19]: 2 min
- MIC [2]: 4 µg/mL
- MIC [3]: 8 µg/mL
- MIC [4]: 8 µg/mL
- MIC [5]: 16 µg/mL
- MIC [6]: 4 µg/mL
- MIC [7]: 4 µg/mL
- MIC [8]: 2 µg/mL
- MIC [9]: 4 µg/mL
- MIC [10]: 8 µg/mL
- MIC [11]: 2 µg/mL
- MIC [12]: 8 µg/mL
- MIC [13]: 2 µg/mL
- MIC [14]: 4 µg/mL
- MIC [15]: 8 µg/mL
- MIC [16]: 8 µg/mL
